Patent US6194451A, “Matrix metalloproteinase inhibitors” (Pharmacia & Upjohn S.p.A., priority 1997, dated 2001)
Converted amounts (≈) assume the structure as drawn.

Columns and labels:
Aqueous solubility = assay type: physicochemical; conditions: water, pH 7.0, 25° C.
Method: Further, several compounds of formula (I), in particular when R2 is hydroxy, and when R1 is hydroxymethyl, have enhanced water solubility as compared to the vast majority of MMP inhibitors of the prior art. An aqueous solubility threshold, which may vary widely but can be roughly set in the range of 1-10 mg/mL, makes systemic administration easy, and more than often is essential to good oral bioavailability.

[1] = molecular target: T1, MMP-3 (human stromelysin-1) (Homo sapiens, UniProt P08254); experiment: Biochemical Assay (Protocol A): inhibition of human stromelysin-1, fluorimetric peptide substrate; conditions: MMP-3, pH 7.4, 37° C.
T1 construct: host or cells: E. coli or baculovirus-infected Sf9 insect cells
T1 sequence (P08254 100-477): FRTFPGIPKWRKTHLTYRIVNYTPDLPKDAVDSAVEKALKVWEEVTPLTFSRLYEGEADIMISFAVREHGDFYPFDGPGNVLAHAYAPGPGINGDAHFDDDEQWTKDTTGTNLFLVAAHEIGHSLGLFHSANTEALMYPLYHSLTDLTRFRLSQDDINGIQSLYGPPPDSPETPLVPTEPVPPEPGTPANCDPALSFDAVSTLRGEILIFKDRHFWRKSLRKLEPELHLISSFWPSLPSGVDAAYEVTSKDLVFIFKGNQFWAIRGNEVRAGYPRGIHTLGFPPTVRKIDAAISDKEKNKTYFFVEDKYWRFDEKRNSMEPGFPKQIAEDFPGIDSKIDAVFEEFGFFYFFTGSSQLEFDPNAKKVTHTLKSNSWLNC
From the text: (§1) As mentioned above, although low molecular weight MMP inhibitors, including hydroxamates of general formula (A), are already known, there is a strong need for better and diversified molecules for their use in medicine, that is in particular in the control or prevention of degenerative joint diseases such as rheumatoid arthritis and osteoarthritis, or in the management of multiple sclerosis, or in the treatment of invasive tumors. […] For example, the following protocol was used to assess the biochemical activity of compounds of formula (I) against MMP-1, MMP-2, and MMP-3 (respectively, human interstitial collagenase, gelatinase A, and stromelysin-1).
(§2) Human gelatinase-A (MMP-2) was obtained as pro-enzyme (72 kDa) and was activated with 1 mM 4-aminophenylmercuric acetate for 30 min at 37° C. immediately prior to use. Human stromelysin-1 (MMP-3) was obtained as a recombinant pro-enzyme isolated either from E. coli or from baculovirus infected Sf9 insect cells and activated either by heat (1 h, 55° C.) or by 5 mg/l trypsin (30 min, 37° C.) before addition of soybean trypsin inhibitor, finally removed by centrifugation.
(§3) All enzyme assays to determine values of the enzyme-inhibitor dissociation constants were performed using the peptide substrate (7-methoxycoumarin-4-yl)Acetyl-Pro-Leu-Gly-Leu-(3-[2,4-dinitrophenyl]-L-2,3-diaminopropionyl)-Ala-Arg-NH2 (Mca-Pro-Leu-Gly-Leu-Dpa-Ala-Arg--NH2) (C. G. Knight et al., FEBS Lett. 296:263-266, 1992). The enzymes cleave at the Gly-Leu bond removing the internally quenching Dpa group. The release of the highly fluorescent peptide Mca-Pro-Leu was followed fluorimetrically setting the excitation wavelength at 326 nm (bandwidth 5 nm) and the emission at 392 nm (bandwidth 20 nm).
(§4) Continuous fluorescence assay was carried out using a Perkin Elmer LS-50 Fluorescence Spectrophotometer fitted with a thermostatted four position stirring cell changer. Inhibitors were dissolved in the assay buffer ([…] Tris/HCl pH 7.4 containing 0.15 M NaCl, 10 mM CaCl2, 0.01 mM ZnCl2 and 0.05% Brij 35) thermostatted at 37° C. The reaction was started by the addition of substrate ([…]), followed by the addition of the enzyme (e.g. 1.0 nM collagenase, 0.04 nM gelatinase, or 3.0 nM stromelysin) and the increase in fluorescence was monitored over 30 min. The run was repeated at different concentrations of inhibitors in the range 0.1-10000 nM and data at inhibitor concentration in the region if their enzyme-inhibitor dissociation constants were used for calculation.
(§5) Substrate consumption was within 5% of the initial concentration and data outside this range were discarded. The Michaelis constants (Km) for the enzyme-substrate complexes is […] or greater (C. G. Knight et al., reference above), so that the factor (1+S/Km) can be approximated to unity without appreciable error.

[2] = molecular target: T2, MMP-1 (human interstitial collagenase) (Homo sapiens, UniProt P03956); experiment: Biochemical Assay (Protocol A): inhibition of human collagenase, fluorimetric peptide substrate; conditions: MMP-1, pH 7.4, 37° C.
T2 construct: truncated recombinant enzyme encompassing residues 101-269
T2 sequence (P03956 101-269): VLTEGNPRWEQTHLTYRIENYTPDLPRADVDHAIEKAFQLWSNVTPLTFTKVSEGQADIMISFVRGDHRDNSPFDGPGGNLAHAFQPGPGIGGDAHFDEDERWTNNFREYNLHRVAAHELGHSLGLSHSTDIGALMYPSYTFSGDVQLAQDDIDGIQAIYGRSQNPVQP
From the text: as §1, §2, §3, §4, §5

[3] = molecular target: T3, MMP-2 (human gelatinase A) (Homo sapiens, UniProt P08253); experiment: Biochemical Assay (Protocol A): inhibition of human gelatinase A, fluorimetric peptide substrate; conditions: MMP-2, pH 7.4, 37° C.
T3 sequence (P08253 110-660): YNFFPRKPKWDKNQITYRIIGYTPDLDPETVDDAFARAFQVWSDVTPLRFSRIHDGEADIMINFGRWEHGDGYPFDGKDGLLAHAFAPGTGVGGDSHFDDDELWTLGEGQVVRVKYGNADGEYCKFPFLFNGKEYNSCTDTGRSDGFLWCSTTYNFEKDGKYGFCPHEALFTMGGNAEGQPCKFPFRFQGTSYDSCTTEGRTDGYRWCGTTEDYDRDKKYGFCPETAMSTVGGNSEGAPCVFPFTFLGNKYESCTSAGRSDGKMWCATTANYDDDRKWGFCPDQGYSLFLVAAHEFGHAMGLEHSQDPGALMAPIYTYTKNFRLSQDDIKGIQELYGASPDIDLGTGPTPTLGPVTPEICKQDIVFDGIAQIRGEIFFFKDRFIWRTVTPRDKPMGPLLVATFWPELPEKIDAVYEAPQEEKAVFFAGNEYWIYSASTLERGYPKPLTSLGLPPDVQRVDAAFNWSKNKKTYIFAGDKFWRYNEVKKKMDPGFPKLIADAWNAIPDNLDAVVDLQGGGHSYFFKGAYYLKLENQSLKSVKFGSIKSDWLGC
From the text: as §1, §2, §3, §4, §5

[4] = system: release of TNF from THP-1 cells; experiment: Cellular Assay (Protocol B): inhibition of release of TNF from LPS-stimulated THP-1 cells; assay type: cell-based; conditions: Homo sapiens, LPS 5 microg/mL, 4 h
Method: For example, the following cell-based assay was used to assess such activity:
THP-1 cells, cultured in RPMI 1640 supplemented with 10% FCS, were distributed into 24-well plates, 1 mL of a suspension of 1×10^6 cells/mL in each well. Compounds to be tested, dissolved in DMSO and diluted with the culture medium (1% final DMSO concentration) were added. Plates were incubated for 30 min at 37° C. in 5% CO2, and lipopolisaccharide (LPS 0111:B4, 5 microg/mL) was added as a stimulant. After a further 4 h incubation, cells were harvested, centrifuged (2,000 rpm, 7 min), and the surnatant was collected and freezed (-20° C.) until analysis. Analysis was run by classical ELISA methodology (monoclonal anti-TNF-a antibody, rabbit capture policlonal antibody, and peroxidated anti-rabbit antibody).

Row | SMILES | solubility (Aqueous solubility) [µg/mL] | Ki [1] [nM] | Ki [2] [nM] | Ki [3] [nM] | IC50 [4] [nM] | inhibition at 100 µM ([4]; at 100 microM) [%]
1 | CC(=O)OC[C@](O)(C(=O)NO)[C@@H](CC(C)C)C(=O)N1CCCCC1 [Example 23, 1-[(2R,3S)-3-Acetoxymethyl-3-hydroxy-4-hydroxyamino-2-isobutylsuccinyl]piperidine] | 5000 (≈ 14.5 mM) | – | – | – | – | –
2 | CC(=O)OC[C@](O)(C(=O)NO)[C@@H](CC(C)C)C(=O)N[C@H](C(=O)Nc1ccncc1)C(C)(C)C [Example 11, [(2R,3S)-3-Acetoxymethyl-3-hydroxy-4-hydroxyamino-2-isobutyl-succinyl]-L-tert-leucine-N-(4-pyridyl)amide] | 3400 (≈ 7.29 mM) | 4.9 | 7.3 | 4.7 | – | –
3 | CNC(=O)[C@@H](NC(=O)[C@H](CC(C)C)[C@](O)(COC1CCCCO1)C(=O)NO)C(C)(C)C (stereo partly drawn) [Example 2, [(2R,3S)-3-Hydroxy-4-hydroxyamino-2-isobutyl-3-(tetrahydro-pyran-2-yloxymethyl)succinyl]-L-tert-leucine-N-methylamide] | – | – | – | – | 5200 | –
4 | CC(C)C[C@@H](C(=O)N1CCOCC1)[C@](O)(COC(=O)C(C)(C)C)C(=O)NO [Example 25, 1-[(2R,3S)-3-Hydroxy-4-hydroxyamino-2-isobutyl-3-(trimethyl-acetoxy)methylsuccinyl]morpholine] | > 8000 | – | – | – | – | –
5 | CNC(=O)[C@@H](NC(=O)[C@H](CC(C)C)[C@](O)(COC(=O)C(C)(C)C)C(=O)NO)C(C)(C)C [Example 13, [(2R,3S)-3-Hydroxy-4-hydroxyamino-2-isobutyl-3-(tri-methylacetoxy)methyl-succinyl]-L-tert-leucine-N-methylamide] | 1300 (≈ 2.92 mM) | 71 | 3.4 | 6.5 | – | –
6 | CNC(=O)[C@@H](NC(=O)[C@H](CC(C)C)[C@](O)(COC(C)=O)C(=O)NO)C(C)(C)C [Example 9, [(2R,3S)-3-Acetoxymethyl-3-hydroxy-4-hydroxyamino-2-isobutyl-succinyl]-L-tert-leucine-N-methylamide] | > 9000 | 110 | 2.2 | 1.7 | – | –
7 | CNC(=O)[C@H](Cc1ccccc1)NC(=O)[C@H](CC(C)C)[C@](O)(COC1CCCCO1)C(=O)NO (stereo partly drawn) [Example 5, [(2R,3S)-3-Hydroxy-4-hydroxyamino-2-isobutyl-3-(tetrahydro-pyran-2-yloxymethyl)succinyl]-L-phenylalanine-N-methylamide] | – | 15 | 2.7 | 0.62 | 1490 | –

The next lines start with results.

Row | solubility (Aqueous solubility) [µg/mL] | Ki [1] [nM] | Ki [2] [nM] | Ki [3] [nM] | IC50 [4] [nM] | SMILES | inhibition at 100 µM ([4]; at 100 microM) [%]
8 | > 10000 | 10 | 6.8 | 9.5 | – | CC(C)C[C@@H](C(=O)N[C@H](C(=O)Nc1ccncc1)C(C)(C)C)[C@](O)(CO)C(=O)NO [Example 12, [(2R,3S)-3-Hydroxy-4-hydroxyamino-3-hydroxymethyl-2-isobutyl-succinyl]-L-tert-leucine-N-(4-pyridyl)amide] | –
9 | 10000 (≈ 18.9 mM) | 1100 | 45 | 40 | – | CNC(=O)[C@@H](NC(=O)[C@H](CC(C)C)[C@@](COC1CCCCO1)(OC1CCCCO1)C(=O)NO)C(C)(C)C (stereo partly drawn) [Example 8, [(2R,3S)-4-Hydroxyamino-2-isobutyl-3-(2-tetrahydropyranyl)oxy-3-(2-tetrahydropyranyl)oxymethylsuccinyl]-L-tert-leucine-N-methylamide] | –
10 | 1900 (≈ 4.65 mM) | – | – | – | – | CC(C)C[C@@H](C(=O)N1CCOCC1)[C@](O)(COC(=O)c1ccccc1)C(=O)NO [Example 22, 1-[(2R,3S)-3-Benzoyoloxymethyl-3-hydroxy-4-hydroxyamino-2-isobutylsuccinyl]morpholine] | –
11 | 5800 (≈ 15.4 mM) | 880 | 25 | 19 | – | CNC(=O)[C@H](Cc1ccccc1)NC(=O)[C@H](CC(C)C)C1(C(=O)NO)CC1 [Example 20, [2R-(1-Hydroxyaminocarbonyl)cyclopropyl-4-methylpentanoyl]-L-phenylalanine-N-methylamide] | –
12 | – | 430 | 67 | 23 | 65400 | CNC(=O)[C@H](Cc1ccccc1)NC(=O)[C@H](CC(C)C)[C@@](O)(COC1CCCCO1)C(=O)NO (stereo partly drawn) [Example 6, [(2R,3R)-3-Hydroxy-4-hydroxyamino-2-isobutyl-3-(tetrahydro-pyran-2-yloxymethyl)succinyl]-L-phenylalanine-N-methylamide] | –
13 | > 6000 | – | – | – | – | CC(C)C[C@@H](C(=O)N1CCCCC1)[C@](O)(CO)C(=O)NO [Example 24, 1-[(2R,3S)-3-Hydroxy-4-hydroxyamino-3-hydroxymethyl-2-isobutyl-succinyl]piperidine] | –
14 | 6000 (≈ 15.2 mM) | 32 | 1.5 | 3.1 | – | CNC(=O)[C@H](Cc1ccccc1)NC(=O)[C@H](CC(C)C)[C@](O)(CO)C(=O)NO [Example 7, [(2R,3S)-3-Hydroxy-4-hydroxyamino-3-hydroxymethyl-2-isobutyl-succinyl]-L-phenylalanine-N-methylamide] | 90
